In ChEMBL document CHEMBL1240489, “Discovery of N-{1-[3-(3-oxo-2,3-dihydrobenzo[1,4]oxazin-4-yl)propyl]piperidin-4-yl}-2-phenylacetamide (Lu AE51090): an allosteric muscarinic M1 receptor agonist with unprecedented selectivity and procognitive potential” (J Med Chem, 2010):
Active and inactive are the calls of the source. The calls are words filed in the database; no cut-off is given here.

Tests used:
[1] = target: Muscarinic acetylcholine receptor M3 (Homo sapiens, UniProt P20309); assay: Binding affinity to human muscarinic M3 receptor by radioligand displacement assay
D(1A) dopamine receptor = D(1A) dopamine receptor (Homo sapiens, UniProt P21728); assay: Binding affinity to human dopamine D1 receptor by radioligand displacement assay
D(1A) dopamine receptor, sequence (P21728 whole entry): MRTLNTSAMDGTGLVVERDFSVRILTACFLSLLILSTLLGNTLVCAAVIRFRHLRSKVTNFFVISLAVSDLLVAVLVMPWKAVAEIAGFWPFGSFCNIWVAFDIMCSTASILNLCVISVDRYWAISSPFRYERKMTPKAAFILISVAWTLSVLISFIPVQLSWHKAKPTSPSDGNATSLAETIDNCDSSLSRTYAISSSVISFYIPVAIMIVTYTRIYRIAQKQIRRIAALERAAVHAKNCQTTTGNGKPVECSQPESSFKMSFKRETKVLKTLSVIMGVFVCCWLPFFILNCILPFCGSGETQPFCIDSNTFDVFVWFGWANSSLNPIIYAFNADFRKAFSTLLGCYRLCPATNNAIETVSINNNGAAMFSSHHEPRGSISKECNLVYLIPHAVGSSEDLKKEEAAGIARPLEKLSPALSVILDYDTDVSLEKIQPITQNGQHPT

Phosphodiesterase 4 = Phosphodiesterase 4 (Homo sapiens, UniProt P27815+Q08499+Q07343+Q08493); assay: Binding affinity to human PDE4 rolipram binding site by radioligand displacement assay; type: protein assay
[2] = target: Beta-2 adrenergic receptor (Homo sapiens, UniProt P07550); assay: Binding affinity to adrenergic beta2 receptor by radioligand displacement assay
Beta-2 adrenergic receptor, sequence (P07550 whole entry): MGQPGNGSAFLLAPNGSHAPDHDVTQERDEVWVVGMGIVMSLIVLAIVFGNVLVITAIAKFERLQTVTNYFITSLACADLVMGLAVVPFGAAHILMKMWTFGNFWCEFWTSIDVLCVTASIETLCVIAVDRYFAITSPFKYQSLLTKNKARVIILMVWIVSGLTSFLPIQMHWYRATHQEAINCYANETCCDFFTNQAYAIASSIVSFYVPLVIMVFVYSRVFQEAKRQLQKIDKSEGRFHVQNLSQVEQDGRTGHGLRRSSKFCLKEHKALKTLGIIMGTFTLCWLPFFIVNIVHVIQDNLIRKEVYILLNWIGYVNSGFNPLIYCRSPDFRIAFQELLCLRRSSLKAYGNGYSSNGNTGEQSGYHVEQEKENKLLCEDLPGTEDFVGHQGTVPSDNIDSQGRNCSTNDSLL

[3] = Protein binding in rat plasma at 0.1 uM after 60 mins by LC/MS-MS analysis; type: ADME, cell-free; settings: read-out: PPB (converted)
[4] = target: T1, Muscarinic acetylcholine receptor M5 (Homo sapiens) (UniProt P08912); assay: Agonist activity at human muscarinic M5 receptor expressed in BHK-21 cells assessed as increase of acetylcholine-induced calcium flux at 10 uM by FLIPR assay relative to acetylcholine; type: functional, cell-based
T1 sequence (whole entry): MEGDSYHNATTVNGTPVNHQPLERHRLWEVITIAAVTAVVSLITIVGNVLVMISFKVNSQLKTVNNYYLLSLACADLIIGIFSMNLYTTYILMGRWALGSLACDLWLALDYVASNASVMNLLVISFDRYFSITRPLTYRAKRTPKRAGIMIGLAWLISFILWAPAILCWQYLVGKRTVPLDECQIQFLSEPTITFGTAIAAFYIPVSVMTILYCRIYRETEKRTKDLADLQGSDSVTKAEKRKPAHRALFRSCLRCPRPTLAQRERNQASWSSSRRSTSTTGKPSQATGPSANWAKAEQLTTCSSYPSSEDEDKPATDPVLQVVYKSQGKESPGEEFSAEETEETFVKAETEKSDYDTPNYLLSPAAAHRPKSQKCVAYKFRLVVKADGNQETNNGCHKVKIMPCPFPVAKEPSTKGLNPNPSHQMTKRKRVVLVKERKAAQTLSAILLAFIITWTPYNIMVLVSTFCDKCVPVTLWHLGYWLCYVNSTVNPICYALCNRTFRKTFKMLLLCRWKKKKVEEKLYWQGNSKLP

[5] = Binding affinity to L-type Ca2+ channel DHP binding site by radioligand displacement assay
[6] = Tmax in rat plasma at 2 mg/kg, po; type: ADME, organism-based; set-up: dose 2 mg/kg, route oral
[7] = target: T2, Muscarinic acetylcholine receptor M1 (Homo sapiens, UniProt P11229); assay: Binding affinity to human muscarinic M1 receptor by radioligand displacement assay
T2 sequence (P11229 whole entry): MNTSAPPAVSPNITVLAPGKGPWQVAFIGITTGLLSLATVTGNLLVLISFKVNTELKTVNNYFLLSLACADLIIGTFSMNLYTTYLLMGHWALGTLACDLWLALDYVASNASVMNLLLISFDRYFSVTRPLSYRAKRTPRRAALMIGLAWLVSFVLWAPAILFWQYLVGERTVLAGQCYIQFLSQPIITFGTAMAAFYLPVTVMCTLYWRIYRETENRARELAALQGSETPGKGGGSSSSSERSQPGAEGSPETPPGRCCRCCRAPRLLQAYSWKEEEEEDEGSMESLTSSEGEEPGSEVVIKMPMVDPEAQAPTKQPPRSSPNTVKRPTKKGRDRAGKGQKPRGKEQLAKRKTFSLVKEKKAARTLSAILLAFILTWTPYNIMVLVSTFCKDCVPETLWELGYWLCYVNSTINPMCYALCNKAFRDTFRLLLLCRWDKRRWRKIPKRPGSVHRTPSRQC

[8] = target: 5-hydroxytryptamine receptor 7 (Homo sapiens, UniProt P34969); assay: Binding affinity to human 5-HT7 receptor by radioligand displacement assay
5-hydroxytryptamine receptor 7, sequence (P34969 whole entry): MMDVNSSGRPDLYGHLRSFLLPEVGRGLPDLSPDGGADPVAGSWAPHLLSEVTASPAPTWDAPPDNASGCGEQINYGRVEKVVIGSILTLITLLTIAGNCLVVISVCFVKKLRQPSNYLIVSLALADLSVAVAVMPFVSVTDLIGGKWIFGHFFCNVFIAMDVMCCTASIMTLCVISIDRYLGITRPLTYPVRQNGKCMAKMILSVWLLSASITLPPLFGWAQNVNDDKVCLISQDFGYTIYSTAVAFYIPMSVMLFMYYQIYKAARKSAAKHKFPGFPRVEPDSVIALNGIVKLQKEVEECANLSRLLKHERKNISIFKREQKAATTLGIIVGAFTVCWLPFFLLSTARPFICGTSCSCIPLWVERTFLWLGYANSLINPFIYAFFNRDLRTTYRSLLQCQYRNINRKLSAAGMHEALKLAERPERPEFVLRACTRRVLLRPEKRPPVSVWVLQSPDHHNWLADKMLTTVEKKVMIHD

[9] = target: T3, Muscarinic acetylcholine receptor M2 (Homo sapiens, UniProt P08172); assay: Binding affinity to human muscarinic M2 receptor by radioligand displacement assay
T3 sequence (P08172 whole entry): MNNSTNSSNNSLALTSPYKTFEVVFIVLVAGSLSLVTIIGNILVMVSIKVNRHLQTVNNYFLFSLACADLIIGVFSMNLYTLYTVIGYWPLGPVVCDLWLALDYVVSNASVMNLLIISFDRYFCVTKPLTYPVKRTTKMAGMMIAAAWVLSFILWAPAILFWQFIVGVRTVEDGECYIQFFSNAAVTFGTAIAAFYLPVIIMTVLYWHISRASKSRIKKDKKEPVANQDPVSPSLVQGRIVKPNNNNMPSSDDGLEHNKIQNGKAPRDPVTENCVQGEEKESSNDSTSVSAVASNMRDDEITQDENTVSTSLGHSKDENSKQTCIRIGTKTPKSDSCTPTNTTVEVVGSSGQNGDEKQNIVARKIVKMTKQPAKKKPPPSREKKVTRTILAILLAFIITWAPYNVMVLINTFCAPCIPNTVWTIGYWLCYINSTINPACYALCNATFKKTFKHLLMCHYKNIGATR

Mus musculus = assay: Reversal of 60 seconds delay-induced memory decay in C57Bl/6J mouse assessed as positive alteration at 0.31 to […], sc for 1 week by Y-maze test; type: functional, organism-based
[10] = Binding affinity to GABAA receptor by radioligand displacement assay
[11] = target: Kappa-type opioid receptor (Homo sapiens, UniProt P41145); assay: Binding affinity to kappa opioid receptor by radioligand displacement assay
Kappa-type opioid receptor, sequence (P41145 whole entry): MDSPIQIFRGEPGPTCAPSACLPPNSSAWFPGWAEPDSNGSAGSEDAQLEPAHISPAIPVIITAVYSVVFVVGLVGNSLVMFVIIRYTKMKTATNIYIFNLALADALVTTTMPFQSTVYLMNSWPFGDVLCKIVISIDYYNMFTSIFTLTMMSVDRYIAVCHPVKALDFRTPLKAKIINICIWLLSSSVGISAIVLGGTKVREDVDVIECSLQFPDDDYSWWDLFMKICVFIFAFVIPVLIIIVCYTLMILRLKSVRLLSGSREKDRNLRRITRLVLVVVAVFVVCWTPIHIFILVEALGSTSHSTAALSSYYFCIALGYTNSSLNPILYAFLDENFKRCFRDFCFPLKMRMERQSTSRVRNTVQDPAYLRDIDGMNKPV

[12] = Binding affinity to voltage gated Na channel site 2 by radioligand displacement assay
[13] = Binding affinity to human muscle-type nicotinic acetylcholine receptor by radioligand displacement assay
[14] = target: Muscarinic acetylcholine receptor M1 (Homo sapiens, UniProt P11229, Y381A)
Muscarinic acetylcholine receptor M1 (Homo sapiens, UniProt P11229, Y381A), sequence (P11229 whole entry Y381A): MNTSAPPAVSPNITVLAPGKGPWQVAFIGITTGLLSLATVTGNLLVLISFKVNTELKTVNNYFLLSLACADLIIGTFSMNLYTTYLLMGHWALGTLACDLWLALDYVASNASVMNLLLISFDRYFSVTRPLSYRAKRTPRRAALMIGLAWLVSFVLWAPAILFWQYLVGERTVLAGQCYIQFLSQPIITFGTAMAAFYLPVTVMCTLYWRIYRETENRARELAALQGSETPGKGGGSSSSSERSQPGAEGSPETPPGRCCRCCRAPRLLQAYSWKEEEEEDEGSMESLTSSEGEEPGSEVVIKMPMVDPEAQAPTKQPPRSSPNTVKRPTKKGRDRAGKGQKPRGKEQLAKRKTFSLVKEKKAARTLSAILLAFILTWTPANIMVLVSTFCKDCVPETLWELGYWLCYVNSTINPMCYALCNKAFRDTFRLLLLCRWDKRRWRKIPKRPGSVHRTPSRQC

[15] = Volume of distribution at steady state in rat plasma at 1 mg/kg, iv and 2 mg/kg, po; type: ADME, organism-based; settings: read-out: Vdss
[16] = Ratio of brain to plasma AUC in Sprague-Dawley rat at 10 mg/kg, sc; type: ADME, organism-based; set-up: dose 10 mg/kg, route subcutaneous
[17] = target: Sodium-dependent serotonin transporter (Homo sapiens, UniProt P31645); assay: Binding affinity to human 5-HT transporter by radioligand displacement assay
Sodium-dependent serotonin transporter, sequence (P31645 whole entry): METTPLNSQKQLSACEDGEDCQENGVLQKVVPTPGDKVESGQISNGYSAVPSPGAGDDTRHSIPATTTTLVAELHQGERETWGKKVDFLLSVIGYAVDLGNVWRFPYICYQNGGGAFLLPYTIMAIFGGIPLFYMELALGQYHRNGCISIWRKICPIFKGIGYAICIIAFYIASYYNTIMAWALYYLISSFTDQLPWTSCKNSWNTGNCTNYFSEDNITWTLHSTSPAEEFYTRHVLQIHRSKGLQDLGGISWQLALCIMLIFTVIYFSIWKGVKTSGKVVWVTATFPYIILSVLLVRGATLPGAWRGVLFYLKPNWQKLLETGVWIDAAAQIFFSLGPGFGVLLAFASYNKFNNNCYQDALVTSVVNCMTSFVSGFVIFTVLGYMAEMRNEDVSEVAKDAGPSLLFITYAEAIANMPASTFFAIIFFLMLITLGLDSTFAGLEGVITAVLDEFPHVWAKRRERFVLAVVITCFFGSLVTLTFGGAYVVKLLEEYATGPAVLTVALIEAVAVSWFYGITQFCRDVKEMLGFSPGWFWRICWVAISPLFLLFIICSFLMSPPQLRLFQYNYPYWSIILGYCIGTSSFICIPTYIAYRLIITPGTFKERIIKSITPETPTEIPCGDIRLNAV

[18] = Binding affinity to adrenergic alpha1 receptor by radioligand displacement assay
D(2) dopamine receptor = D(2) dopamine receptor (Homo sapiens, UniProt P14416); assay: Binding affinity to human D2S agonist site receptor by radioligand displacement assay
D(2) dopamine receptor, sequence (P14416 whole entry): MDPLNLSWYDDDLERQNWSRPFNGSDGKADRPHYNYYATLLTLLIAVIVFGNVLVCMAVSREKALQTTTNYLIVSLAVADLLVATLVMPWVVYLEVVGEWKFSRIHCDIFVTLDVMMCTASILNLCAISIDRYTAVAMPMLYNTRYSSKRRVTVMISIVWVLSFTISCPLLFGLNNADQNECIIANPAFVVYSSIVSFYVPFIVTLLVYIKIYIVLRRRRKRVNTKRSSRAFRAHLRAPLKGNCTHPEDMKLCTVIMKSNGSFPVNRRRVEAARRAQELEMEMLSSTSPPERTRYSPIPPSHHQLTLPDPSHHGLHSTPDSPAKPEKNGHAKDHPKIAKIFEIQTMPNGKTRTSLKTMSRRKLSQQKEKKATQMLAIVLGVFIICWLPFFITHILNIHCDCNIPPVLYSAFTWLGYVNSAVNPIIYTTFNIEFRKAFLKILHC

[19] = target: T3, Muscarinic acetylcholine receptor M2; assay: Displacement of [3H]-AFDX-384 from human muscarinic M2 receptor expressed in CHO-K1 cells; type: cell-based
Glucocorticoid receptor = Glucocorticoid receptor (Homo sapiens, UniProt P04150); assay: Binding affinity to human glucocorticoid receptor by radioligand displacement assay
Glucocorticoid receptor, sequence (P04150 whole entry): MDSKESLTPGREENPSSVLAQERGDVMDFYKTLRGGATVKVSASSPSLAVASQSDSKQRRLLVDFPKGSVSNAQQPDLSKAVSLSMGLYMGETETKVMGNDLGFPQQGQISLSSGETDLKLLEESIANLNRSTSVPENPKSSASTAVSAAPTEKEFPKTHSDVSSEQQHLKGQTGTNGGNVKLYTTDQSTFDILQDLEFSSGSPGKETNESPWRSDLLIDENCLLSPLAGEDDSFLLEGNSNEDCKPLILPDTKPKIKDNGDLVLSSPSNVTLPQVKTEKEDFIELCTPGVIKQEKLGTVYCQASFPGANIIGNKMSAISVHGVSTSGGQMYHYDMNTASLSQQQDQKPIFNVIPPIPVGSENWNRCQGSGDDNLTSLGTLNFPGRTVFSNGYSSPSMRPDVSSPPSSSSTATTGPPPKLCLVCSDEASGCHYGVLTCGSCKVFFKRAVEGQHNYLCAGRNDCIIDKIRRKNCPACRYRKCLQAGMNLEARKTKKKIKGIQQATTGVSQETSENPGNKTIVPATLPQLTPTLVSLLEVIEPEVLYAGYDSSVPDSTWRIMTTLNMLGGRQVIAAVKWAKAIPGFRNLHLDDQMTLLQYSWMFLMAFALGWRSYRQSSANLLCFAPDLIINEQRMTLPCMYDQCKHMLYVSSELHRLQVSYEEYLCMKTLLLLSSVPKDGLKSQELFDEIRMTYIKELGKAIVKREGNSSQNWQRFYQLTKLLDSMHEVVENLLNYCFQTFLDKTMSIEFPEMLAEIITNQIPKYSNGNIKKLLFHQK

[20] = target: Alpha-1B adrenergic receptor (Homo sapiens, UniProt P35368); assay: Binding affinity to human adrenergic Alpha-1B receptor by radioligand displacement assay
Alpha-1B adrenergic receptor, sequence (P35368 whole entry): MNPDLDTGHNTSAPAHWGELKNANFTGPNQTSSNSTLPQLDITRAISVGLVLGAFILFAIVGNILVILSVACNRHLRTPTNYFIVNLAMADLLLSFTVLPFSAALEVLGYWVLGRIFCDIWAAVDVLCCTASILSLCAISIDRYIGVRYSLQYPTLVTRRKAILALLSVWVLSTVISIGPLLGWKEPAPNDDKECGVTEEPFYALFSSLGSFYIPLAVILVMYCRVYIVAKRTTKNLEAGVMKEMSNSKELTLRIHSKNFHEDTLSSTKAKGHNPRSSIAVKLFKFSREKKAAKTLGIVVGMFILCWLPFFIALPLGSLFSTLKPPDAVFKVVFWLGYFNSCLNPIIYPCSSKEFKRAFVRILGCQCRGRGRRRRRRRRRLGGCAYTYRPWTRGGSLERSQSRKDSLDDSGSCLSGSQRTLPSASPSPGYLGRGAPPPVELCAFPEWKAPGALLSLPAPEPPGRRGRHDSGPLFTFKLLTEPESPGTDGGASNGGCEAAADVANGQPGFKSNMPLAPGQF

[21] = Clearance in rat plasma at 1 mg/kg, iv and 2 mg/kg, po; type: ADME, organism-based
Histamine H1 receptor = Histamine H1 receptor (Homo sapiens, UniProt P35367); assay: Binding affinity to human histamine H1 receptor by radioligand displacement assay

Compound: O=C(Cc1ccccc1)NC1CCN(CCCN2C(=O)COc3ccccc32)CC1
- Ki [1]: ≥ 1000 nM
- Ki (D(1A) dopamine receptor): ≥ 1000 nM
- Ki (Phosphodiesterase 4): >= 1000 nM
- Ki [2]: ≥ 1000 nM
- fraction unbound at 1 h, 0.1 µM [3]: 0.48
- Emax [4]: 1%
- Ki [5]: ≥ 1000 nM
- Tmax [6]: 48 min
- Ki [7]: ≥ 1000 nM
- Ki [8]: ≥ 1000 nM
- Ki [9]: ≥ 1000 nM
- Activity (Mus musculus): inactive
- Ki [10]: ≥ 1000 nM
- Ki [11]: ≥ 1000 nM
- Ki [12]: ≥ 1000 nM
- Ki [13]: ≥ 1000 nM
- EC50 [14]: 97 nM
- Vd [15]: 4.8 L/kg
- Kp [16]: 0.2
- Ki [17]: ≥ 1000 nM
- Ki [18]: ≥ 1000 nM
- Ki (D(2) dopamine receptor): ≥ 1000 nM
- Ki [19]: 2200 nM
- Ki (Glucocorticoid receptor): ≥ 1000 nM
- Ki [20]: 910 nM
- clearance [21]: 83.3 mL/min/kg
- Ki (Histamine H1 receptor): 780 nM
